Test results published in patent US9540323B2 (BRISTOL-MYERS SQUIBB COMPANY, priority 2012, dated 2017).
Structures can show the parent of a compound that is named as a salt. Where two headings read alike, the source gives them in different places.

Tests used:
[1] = target: cloned human P2Y1 receptors (Homo sapiens (Human), UniProt P47900); assay: Binding Assay B - Scintillation Proximity Assay (SPA) for P2Y1 binding, [33P] 2MeS-ADP; conditions: read-out: P2Y1 Ki (nM) using binding assay B
Procedure: Binding Assay B—Scintillation Proximity Assay (SPA) for P2Y1 Binding
A SPA membrane binding assay was used to identify inhibitors of [^33P] […] Reactions were allowed to proceed to completion at room temperature for 1 hour followed by centrifugation of the plate for 5 min. About 40 μL of the aqueous solution was aspirated. Plates were sealed and the [^33P]

[2] = test system: human platelet rich plasma (PRP); assay: ADP induced platelet aggregation assay; conditions: Homo sapiens, Platelet, 5 min, read-out: PA IC50 (μM) @ 10 μM ADP, human PRP, 10 μM ADP, AUC at 5 minute
[3] = SPA, 0.3 nM [33P] 2MeS-ADP, Cheng-Prusoff

Chain of cloned human P2Y1 receptors (P47900 whole entry): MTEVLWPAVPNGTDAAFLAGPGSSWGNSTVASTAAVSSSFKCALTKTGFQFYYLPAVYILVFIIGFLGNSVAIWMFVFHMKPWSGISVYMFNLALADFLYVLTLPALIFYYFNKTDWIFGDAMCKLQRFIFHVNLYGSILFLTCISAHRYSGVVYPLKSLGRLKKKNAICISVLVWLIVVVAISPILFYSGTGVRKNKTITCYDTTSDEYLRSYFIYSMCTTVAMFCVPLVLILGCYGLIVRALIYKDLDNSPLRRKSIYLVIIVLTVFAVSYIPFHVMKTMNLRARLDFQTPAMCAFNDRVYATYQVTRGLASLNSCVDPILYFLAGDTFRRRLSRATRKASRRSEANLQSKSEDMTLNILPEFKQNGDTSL

SMILES	Ki [1, 3] [nM]	IC50 [2] [µM]	Ki [1] [nM]
CC1(C)CN(c2ccccc2NC(=O)Nc2ccc(OC(F)(F)F)cc2)c2c(O)c(F)cc(-c3ccc(C(F)(F)F)cn3)c21 [Example 129, 1-(2-(6-Fluoro-7-hydroxy-3,3-dimethyl-4-(5-(trifluoromethyl)pyridin-2-yl)indolin-1-yl)phenyl)-3-(4-(trifluoromethoxy)phenyl)urea]	15.3	0.71	
CC1(C)CN(c2ccccc2NC(=O)Nc2nc3ccc(Cl)nc3s2)c2c(O)cc(F)c(-c3cc(C(F)(F)F)no3)c21 [Example 263, 1-(5-Chlorothiazolo[5,4-b]pyridin-2-yl)-3-(2-(5-fluoro-7-hydroxy-3,3-dimethyl-4-(3-(trifluoromethyl)isoxazol-5-yl)indolin-1-yl)phenyl)urea]	20.5	0.84	
CC1(C)CN(c2ccccc2NC(=O)Nc2ccc(OC(F)(F)F)cc2)c2c(O)cc(F)c(-c3ccc(Cl)c(F)c3)c21 [Example 234, 1-(2-(4-(4-Chloro-3-fluorophenyl)-5-fluoro-7-hydroxy-3,3-dimethylindolin-1-yl)phenyl)-3-(4-(trifluoromethoxy)phenyl)urea]	40.8	0.29	
CC1(C)CN(c2ccccc2NC(=O)Nc2ccc(OC(F)(F)F)cc2)c2c(O)cc(F)c(-c3cccc(C#N)c3)c21 [Example 247, 1-(2-(4-(3-Cyanophenyl)-5-fluoro-7-hydroxy-3,3-dimethylindolin-1-yl)phenyl)-3-(4-(trifluoromethoxy)phenyl)urea]	10	0.87	
CC1(C)CN(c2ccccc2NC(=O)Nc2csc(Cl)n2)c2c(O)ccc(C(F)(F)F)c21 [Example 16, 1-(2-Chlorothiazol-4-yl)-3-(2-(7-hydroxy-3,3-dimethyl-4-(trifluoromethyl)indolin-1-yl)phenyl)urea]	6.2	0.12	
CC(C)n1nc(-c2c(F)cc(O)c3c2C(C)(C)CN3c2ccccc2NC(=O)Nc2nc3ccc(Cl)cc3s2)cc1C(F)(F)F [Example 266, 1-(6-Chlorobenzo[d]thiazol-2-yl)-3-(2-(5-fluoro-7-hydroxy-4-(1-isopropyl-5-(trifluoromethyl)-1H-pyrazol-3-yl)-3,3-dimethylindolin-1-yl)phenyl)urea]	41.1	0.13	
CC(C)(C)c1ccc(-c2c(F)cc(O)c3c2C(C)(C)CN3c2ccccc2NC(=O)Nc2csc(Cl)n2)cc1 [Example 242, 1-(2-(4-(4-(tert-Butyl)phenyl)-5-fluoro-7-hydroxy-3,3-dimethylindolin-1-yl)phenyl)-3-(2-chlorothiazol-4-yl)urea]	12.6	0.06	
Cc1cc(-c2c(F)cc(O)c3c2C(C)(C)CN3c2ccccc2NC(=O)Nc2ccc(OC(F)(F)F)cc2)ccn1 [Example 191, 1-(2-(5-Fluoro-7-hydroxy-3,3-dimethyl-4-(2-methylpyridin-4-yl)indolin-1-yl)phenyl)-3-(4-(trifluoromethoxy)phenyl)urea]	12.3	0.19	
CC(C)c1nc(-c2c(F)cc(O)c3c2C(C)(C)CN3c2ccccc2NC(=O)Nc2ccc(OC(F)(F)F)cc2)co1 [Example 258, 1-(2-(5-Fluoro-7-hydroxy-4-(2-isopropyloxazol-4-yl)-3,3-dimethylindolin-1-yl)phenyl)-3-(4-(trifluoromethoxy)phenyl)urea]	7.5	0.52	
CC1(C)CN(c2ccccc2NC(=O)Nc2nc3ccc(F)cc3s2)c2c(O)ccc(-c3nc4ccc(Cl)cc4o3)c21 [Example 134, 1-(2-(4-(6-Chlorobenzo[d]oxazol-2-yl)-7-hydroxy-3,3-dimethylindolin-1-yl)phenyl)-3-(6-fluorobenzo[d]thiazol-2-yl)urea]	73.8	0.19	
CC1(C)CN(c2ccccc2NC(=O)Nc2ccc(F)cc2F)c2c(O)ccc(C(F)(F)F)c21 [Example 14, 1-(2,4-Difluorophenyl)-3-(2-(7-hydroxy-3,3-dimethyl-4-(trifluoromethyl)indolin-1-yl)phenyl)urea]	5.2	0.48	
CC1(C)CN(c2ccccc2NC(=O)Nc2ccc(OC(F)(F)F)cc2)c2c(O)ccc(-c3ccccc3F)c21 [Example 207, 1-(2-(4-(2-Fluorophenyl)-7-hydroxy-3,3-dimethylindolin-1-yl)phenyl)-3-(4-(trifluoromethoxy)phenyl)urea]	8.7	0.08	
CC1(C)CN(c2ccccc2NC(=O)Nc2nc3ccc(F)nc3s2)c2c(O)cc(F)c(-c3nc4cc(F)ccc4s3)c21 [Example 182, 1-(2-(5-Fluoro-4-(5-fluorobenzo[d]thiazol-2-yl)-7-hydroxy-3,3-dimethylindolin-1-yl)phenyl)-3-(5-fluorothiazolo[5,4-b]pyridin-2-yl)urea]	15.7	0.51	
CC1(C)CN(c2ccccc2NC(=O)Nc2nc3ccc(F)cc3s2)c2c(O)cc(F)c(-c3nc4ccc(Cl)cc4s3)c21 [Example 155, 1-(2-(4-(6-Chlorobenzo[d]thiazol-2-yl)-5-fluoro-7-hydroxy-3,3-dimethylindolin-1-yl)phenyl)-3-(6-fluorobenzo[d]thiazol-2-yl)urea]	38	0.6	
Cc1c(-c2c(F)cc(O)c3c2C(C)(C)CN3c2ccccc2NC(=O)Nc2ccc(OC(F)(F)F)cc2)cnn1-c1ccccc1 [Example 186, 1-(2-(5-Fluoro-7-hydroxy-3,3-dimethyl-4-(5-methyl-1-phenyl-1H-pyrazol-4-yl)indolin-1-yl)phenyl)-3-(4-(trifluoromethoxy)phenyl)urea]	17.6	0.67	
CC1(C)CN(c2ccccc2NC(=O)Nc2ccc(OC(F)(F)F)cc2)c2c(O)cc(F)c(-c3ccc(C(F)(F)F)nc3)c21 [Example 135, 1-(2-(5-Fluoro-7-hydroxy-3,3-dimethyl-4-(6-(trifluoromethyl)pyridin-3-yl)indolin-1-yl)phenyl)-3-(4-(trifluoromethoxy)phenyl)urea]	8.7	0.15	
CC1(C)CN(c2ccccc2NC(=O)Nc2ccc(OC(F)(F)F)cc2)c2c(O)cc(F)c(-c3ccno3)c21 [Example 261, 1-(2-(5-Fluoro-7-hydroxy-4-(isoxazol-5-yl)-3,3-dimethylindolin-1-yl)phenyl)-3-(4-(trifluoromethoxy)phenyl)urea]	5.5	1.99	
CC1(C)CN(c2ccccc2NC(=O)Nc2ccc(OC(F)(F)F)cc2)c2c(O)ccc(-c3ccc(C(F)(F)F)cc3)c21 [Example 196, 1-(2-(7-Hydroxy-3,3-dimethyl 4-(4-(trifluoromethyl)phenyl)indolin-1-yl)phenyl)-3-(4-(trifluoromethoxy)phenyl)urea]	8	0.23	
CCC1(CC)CN(c2ccccc2NC(=O)Nc2ccc(C3CCCN3CC(C)C)cc2)c2c(O)ccc(F)c21 (stereo not drawn) [Example 30, 1-(2-(3,3-Diethyl-4-fluoro-7-hydroxyindolin-1-yl)phenyl)-3-(4-(1-isobutylpyrrolidin-2-yl)phenyl)urea]	5.1	0.28	
CC(C)n1nc(C(F)(F)F)cc1-c1c(F)cc(O)c2c1C(C)(C)CN2c1ccccc1NC(=O)Nc1nc2ccc(F)cc2s1 [Example 267, 1-(2-(5-Fluoro-7-hydroxy-4-(1-isopropyl-3-(trifluoromethyl)-1H-pyrazol-5-yl)-3,3-dimethylindolin-1-yl)phenyl)-3-(6-fluorobenzo[d]thiazol-2-yl)urea]	16.4	0.51	
CC1(C)CN(c2ccccc2NC(=O)Nc2ccc(OC(F)(F)F)cc2)c2c(O)cc(F)c(-c3cnc(Cl)cn3)c21 [Example 163, 1-(2-(4-(5-Chloropyrazin-2-yl)-5-fluoro-7-hydroxy-3,3-dimethylindolin-1-yl)phenyl)-3-(4-(trifluoromethoxy)phenyl)urea]	43.1	0.26	
CC(C)CN1CCCC1c1ccc(NC(=O)Nc2ccccc2N2CC(C)(C)c3cccc(O)c32)cc1 (stereo not drawn) [Example 11, 1-(2-(7-Hydroxy-3,3-dimethylindolin-1-yl)phenyl)-3-(4-(1-isobutylpyrrolidin-2-yl)phenyl)urea]	36.8	1.08	
CC1(C)CN(c2ccccc2NC(=O)Nc2ccc(OC(F)(F)F)cc2)c2ccccc21 [Comparator 2, reference compound]	8.7	> 20	
CC1(C)CN(c2ccccc2NC(=O)Nc2ccc(OC(F)(F)F)cc2)c2c(O)ccc(-c3ccc(C(F)(F)F)nc3)c21 [Example 120, 1-(2-(7-Hydroxy-3,3-dimethyl-4-(6-(trifluoromethyl)pyridin-3-yl)indolin-1-yl)phenyl)-3-(4-(trifluoromethoxy)phenyl)urea,TFA]	7.9	0.14	
CC(C)(C)CN1CCC(c2ccc(NC(=O)Nc3ccccc3N3CC(C)(C)c4c(C(F)(F)F)ccc(O)c43)cc2)CC1 [Example 2, 1-(2-(7-Hydroxy-3,3-dimethyl-4-(trifluoromethyl)indolin-1-yl)phenyl)-3-(4-(1-neopentylpiperidin-4-yl)phenyl)urea]	3.4	0.13	
CCC1(CC)CN(c2ccccc2NC(=O)Nc2ccc(C(F)(F)F)cc2)c2c(O)ccc(Cl)c21 [Example 52, 1-(2-(4-Chloro-3,3-diethyl-7-hydroxyindolin-1-yl)phenyl)-3-(4-(trifluoromethyl)phenyl) urea]	12.6	0.28	
CC(C)(C)c1nc(-c2c(F)cc(O)c3c2C(C)(C)CN3c2ccccc2NC(=O)Nc2ccc(OC(F)(F)F)cc2)no1 [Example 278, 1-(2-(4-(5-(tert-Butyl)-1,2,4-oxadiazol-3-yl)-5-fluoro-7-hydroxy-3,3-dimethylindolin-1-yl)phenyl)-3-(4-(trifluoromethoxy)phenyl)urea]		0.21	8.1
